# Results from patent publication US20200016136A1 (VIIV HEALTHCARE UK (NO. 5) LIMITED, priority 2017, published 2020).
# Test system: NL-RLuc virus (recombinant NL4-3 HIV with Renilla Luciferase gene)
# Assay: Inhibition of HIV replication (NL-RLuc virus in MT-2 cells, luciferase readout)
# Assay type: cell-based, Human immunodeficiency virus (HIV)
# Settings: MT2, 120 h
# Excerpt: Inhibition of HIV Replication:
# A recombinant NL-RLuc proviral clone was constructed in which a section of the nef gene form NL4-3 was replaced with the Renilla Luciferase gene. This virus is fully infectious and can undergo multiple cycles of replication in cell culture. In addition, the luciferous reporter provides a simple and easy method for quantitating the extent of virus growth and consequently, the antiviral activity of test compounds. The plasmid pNLRLuc contains the proviral NL-Rluc DNA cloned into pUC18 at the PvuII site. The NL-RLuc virus was prepared by transfection of 293T cells with the plasmid pNLRLuc. Transfections were performed using the LipofectAMINE PLUS kit form Invitrogen (Carlsbad, Calif.) according to the manufacturer and the virus generated was titered in MT-2 cells. For susceptibility analyses, the titrated virus was used to infect MT-2 cells in the presence of compound, and after 5 days of incubation, cells were processed and quantitated for virus growth by the amount of expressed luciferase. Assay media was RPMI 1640 supplemented with 10% heat inactivated fetal bovine serum (FBS), 100 units/ml penicillin G/100 units/ml streptomycin, 10 mM HEPES buffer pH 7.55 and 2 mM L-glutamine. The results form at least 2 experiments were used to calculate the EC50 values. Luciferase was quantitated using the Dual Luciferase kit form Promega (Madison, Wis.). Susceptibility of viruses to compounds was determined by incubation in the presence of serial dilutions of the compound. The 50% effective concentration (EC50) was calculated by using the exponential form of the median effect equation where (Fa)=1/[1+(ED50/drug conc.)^m](Johnson V A, Byington R T. Infectivity Assay. In Techniques in HIV Research. ed. Aldovini A, Walker B D. 71-76. New York: Stockton Press. 1990).
row,Structure (SMILES),EC50 [nM]
1,"Cc1nc(C)c([C@H](OC(C)(C)C)C(=O)O)c(N2CCC(C)(C)CC2)c1-c1ccc2c(c1)CCN(c1nccc(N3CCN(C)CC3)n1)C2 [Example 40, (2S)-2-(tert-Butoxy)-2-[4-(4,4-dimethylpiperidin-1-yl)-2,6-dimethyl-5-{2-[4-(4-methylpiperazin-1-yl)pyrimidin-2-yl]-1,2,3,4-tetrahydroisoquinolin-6-yl}pyridin-3-yl]acetic Acid]",4
2,"CC1(C)CCN(c2c(-c3ccc4c(c3)CCN(c3nccc(-c5cnccn5)n3)C4)cnc(Cl)c2[C@H](OC(C)(C)C)C(=O)O)CC1 [Example 153, (S)-2-(tert-Butoxy)-2-(2-chloro-4-(4,4-dimethylpiperidin-1-yl)-5-(2-(4-(pyrazin-2-yl)pyrimidin-2-yl)-1,2,3,4-tetrahydroisoquinolin-6-yl)pyridin-3-yl)acetic Acid]",2
3,"Cc1nc(C)c([C@H](OC(C)(C)C)C(=O)O)c(N2CCC(C)(C)CC2)c1-c1ccc2c(c1)CCN(c1nccc(N3C[C@@H](C)O[C@@H](C)C3)n1)C2 [Example 28, (2S)-2-(tert-Butoxy)-2-[5-(2-{4-[(2R,6S)-2,6-dimethylmorpholin-4-yl]pyrimidin-2-yl}-1,2,3,4-tetrahydroisoquinolin-6-yl)-4-(4,4-dimethylpiperidin-1-yl)-2,6-dimethylpyridin-3-yl]acetic Acid]",2
4,"CC1(C)CCN(c2c(-c3ccc4c(c3)CCN(c3nccc(-c5cnccn5)n3)C4)c(N)nc(Cl)c2[C@H](OC(C)(C)C)C(=O)O)CC1 [Example 163, (S)-2-(6-Amino-2-chloro-4-(4,4-dimethylpiperidin-1-yl)-5-(2-(4-(pyrazin-2-yl)pyrimidin-2-yl)-1,2,3,4-tetrahydroisoquinolin-6-yl)pyridin-3-yl)-2-(tert-butoxy)acetic Acid]",3
5,"CC1(C)CCN(c2c(-c3ccc4c(c3)CCN(c3nccc(N5CCOCC5)n3)C4)c(CN3CCC4(CCC4)CC3)nc(Cl)c2[C@H](OC(C)(C)C)C(=O)O)CC1 [Example 150, (S)-2-(6-((7-Azaspiro[3.5]nonan-7-yl)methyl)-2-chloro-4-(4,4-dimethylpiperidin-1-yl)-5-(2-(4-morpholinopyrimidin-2-yl)-1,2,3,4-tetrahydroisoquinolin-6-yl)pyridin-3-yl)-2-(tert-butoxy)acetic Acid]",0.3
6,"Cc1ncc(-c2ccc3c(c2)CCN(c2nccc(-c4cnccn4)n2)C3)c(N2CCC(C)(C)CC2)c1[C@H](OC(C)(C)C)C(=O)O [Example 147, (S)-2-(tert-Butoxy)-2-(4-(4,4-dimethylpiperidin-1-yl)-2-methyl-5-(2-(4-(pyrazin-2-yl)pyrimidin-2-yl)-1,2,3,4-tetrahydroisoquinolin-6-yl)pyridin-3-yl)acetic Acid]",2
7,"CCOc1ncnc(N2CCc3cc(-c4c(C)nc(C)c([C@H](OC(C)(C)C)C(=O)O)c4N4CCC(C)(C)CC4)ccc3C2)c1C [Example 78, (S)-2-(tert-Butoxy)-2-(4-(4,4-dimethylpiperidin-1-yl)-5-(2-(6-ethoxy-5-methylpyrimidin-4-yl)-1,2,3,4-tetrahydroisoquinolin-6-yl)-2,6-dimethylpyridin-3-yl)acetic Acid]",5
8,"Cc1nc(C)c([C@H](OC(C)(C)C)C(=O)O)c(N2CCC(C)(C)CC2)c1-c1ccc2c(c1)CCN(c1nccc(N3C[C@@H](C)N(C)[C@@H](C)C3)n1)C2 [Example 41, (2S)-2-(tert-Butoxy)-2-[4-(4,4-dimethylpiperidin-1-yl)-2,6-dimethyl-5-(2-{4-[(3R,5S)-3,4,5-trimethylpiperazin-1-yl]pyrimidin-2-yl}-1,2,3,4-tetrahydroisoquinolin-6-yl)pyridin-3-yl]acetic Acid]",3
9,"CC1(C)CCN(Cc2nc(Cl)c([C@H](OC(C)(C)C)C(=O)O)c(N3CCC(C)(C)CC3)c2-c2ccc3c(c2)CCN(c2ncnc4c2oc2ccccc24)C3)CC1 [Example 96, (S)-2-(5-(2-(Benzofuro[3,2-d]pyrimidin-4-yl)-1,2,3,4-tetrahydroisoquinolin-6-yl)-2-chloro-4-(4,4-dimethylpiperidin-1-yl)-6-((4,4-dimethylpiperidin-1-yl)methyl)pyridin-3-yl)-2-(tert-butoxy)acetic Acid]",0.3
10,"Cc1nc(C)c([C@H](OC(C)(C)C)C(=O)O)c(N2CCC(C)(C)CC2)c1-c1ccc2c(c1)CCN(c1cccc(N3CCOCC3)n1)C2 [Example 66, (S)-2-(tert-Butoxy)-2-(4-(4,4-dimethylpiperidin-1-yl)-2,6-dimethyl-5-(2-(6-morpholinopyridin-2-yl)-1,2,3,4-tetrahydroisoquinolin-6-yl)pyridin-3-yl)acetic Acid]",13
11,Cc1cccc(Cl)c1CN1CCc2cc(-c3c(NCCCN4CCN(C)CC4)nc(C)c([C@H](OC(C)(C)C)C(=O)O)c3N3CCC(C)(C)CC3)ccc2C1 [Example 11],2
12,"COc1c(N2CCOCC2)ncnc1N1CCc2cc(-c3c(C)nc(C)c([C@H](OC(C)(C)C)C(=O)O)c3N3CCC(C)(C)CC3)ccc2C1 [Example 67, (S)-2-(tert-Butoxy)-2-(4-(4,4-dimethylpiperidin-1-yl)-5-(2-(5-methoxy-6-morpholinopyrimidin-4-yl)-1,2,3,4-tetrahydroisoquinolin-6-yl)-2,6-dimethylpyridin-3-yl)acetic Acid]",2
13,"Cc1nc(C)c([C@H](OC(C)(C)C)C(=O)O)c(N2CCC(C)(C)CC2)c1-c1ccc2c(c1)CCN(c1cc(N3CCC(CCO)CC3)ncn1)C2 [Example 121, (S)-2-(tert-Butoxy)-2-(4-(4,4-dimethylpiperidin-1-yl)-5-(2-(6-(4-(2-hydroxyethyl)piperidin-1-yl)pyrimidin-4-yl)-1,2,3,4-tetrahydroisoquinolin-6-yl)-2,6-dimethylpyridin-3-yl)acetic Acid]",9
14,"Cc1nc(C)c([C@H](OC(C)(C)C)C(=O)O)c(N2CCC(C)(C)CC2)c1-c1ccc2c(c1)CCN(c1nccc(N(C)C)n1)C2 [Example 17, (2S)-2-(tert-Butoxy)-2-(5-{2-[4-(dimethylamino)pyrimidin-2-yl]-1,2,3,4-tetrahydroisoquinolin-6-yl}-4-(4,4-dimethylpiperidin-1-yl)-2,6-dimethylpyridin-3-yl)acetic Acid]",1
15,"Cc1nc(C)c([C@H](OC(C)(C)C)C(=O)O)c(N2CCC(C)(C)CC2)c1-c1ccc2c(c1)CCN(c1cccc(F)n1)C2 [Example 94, (S)-2-(tert-Butoxy)-2-(4-(4,4-dimethylpiperidin-1-yl)-5-(2-(6-fluoropyridin-2-yl)-1,2,3,4-tetrahydroisoquinolin-6-yl)-2,6-dimethylpyridin-3-yl)acetic Acid]",4
16,"Cc1nc(C)c([C@H](OC(C)(C)C)C(=O)O)c(N2CCC(C)(C)CC2)c1-c1ccc2c(c1)CCN(c1nc(N3CCOCC3)nn3cccc13)C2 [Example 84, (S)-2-(tert-Butoxy)-2-(4-(4,4-dimethylpiperidin-1-yl)-2,6-dimethyl-5-(2-(2-morpholinopyrrolo[2,1-f][1,2,4]triazin-4-yl)-1,2,3,4-tetrahydroisoquinolin-6-yl)pyridin-3-yl)acetic Acid]",6
17,"Cc1nc(C)c([C@H](OC(C)(C)C)C(=O)O)c(N2CCC(C)(C)CC2)c1-c1ccc2c(c1)CCN(c1ccnc(N3C4CCC3CN(C)C4)n1)C2 [Example 42, (2S)-2-(tert-Butoxy)-2-[4-(4,4-dimethylpiperidin-1-yl)-2,6-dimethyl-5-[2-(2-{3-methyl-3,8-diazabicyclo[3.2.1]octan-8-yl}pyrimidin-4-yl)-1,2,3,4-tetrahydroisoquinolin-6-yl]pyridin-3-yl]acetic Acid]",4
18,"Cc1nc(C)c([C@H](OC(C)(C)C)C(=O)O)c(N2CCC(C)(C)CC2)c1-c1ccc2c(c1)CCN(c1nccc(N3CCS(=O)(=O)CC3)n1)C2 [Example 46, (S)-2-(tert-Butoxy)-2-(4-(4,4-dimethylpiperidin-1-yl)-5-(2-(4-(1,1-dioxidothiomorpholino)pyrimidin-2-yl)-1,2,3,4-tetrahydroisoquinolin-6-yl)-2,6-dimethylpyridin-3-yl)acetic Acid]",9
19,"Cc1nc(CN2CCC(C)(C)CC2)c(-c2ccc3c(c2)CCN(c2ncnc4c2oc2ccccc24)C3)c(N2CCC(C)(C)CC2)c1[C@H](OC(C)(C)C)C(=O)O [Example 161, (S)-2-(5-(2-(Benzofuro[3,2-d]pyrimidin-4-yl)-1,2,3,4-tetrahydroisoquinolin-6-yl)-4-(4,4-dimethylpiperidin-1-yl)-6-((4,4-dimethylpiperidin-1-yl)methyl)-2-methylpyridin-3-yl)-2-(tert-butoxy)acetic Acid]",1
20,"Cc1cccc(Cl)c1CN1CCc2cc(-c3c(NCCN4CCCCC4)nc(C)c([C@H](OC(C)(C)C)C(=O)O)c3N3CCC(C)(C)CC3)ccc2C1 [Example 4, (S)-2-(tert-Butoxy)-2-(5-(2-(2-chloro-6-methylbenzyl)-1,2,3,4-tetrahydroisoquinolin-6-yl)-4-(4,4-dimethylpiperidin-1-yl)-2-methyl-6-((2-(piperidin-1-yl)ethyl)amino)pyridin-3-yl)acetic Acid]",4
